According to patent US6867179B1, “Methods of inducing hair growth and coloration” (Trustees of Boston University, priority 1994, dated 2005):
No end group written: not given here.

Legend:
Bax = Bax level in beta-amyloid treated melanocytes (Western blot); format: cell-based, human
Description: To investigate the mechanism of -amyloid-mediated melanocyte death, Bax levels in melanocytes treated with 25 uM of 1-40 or 25-35-amyloid peptides was examined. Within 4 days of treatment, Bax was induced 3 fold in melanocytes stimulated either with the beta-amyloid 1-40 or 25-35 fragments as compared to melanocytes treated with the 40-1 control fragment or an irrelevant HPLC purified protein of similar size.
Melanocytes were maintained as above. Four days after addition of 25 microM of beta-amyloid fragments 1-40 40-1 or 25-35; or 25 microM of HPLC-purified bovine corticotropin releasing factor (CRF) (Bachem Calif.) (MW 4.7 kD) as an additional negative control, cells were extracted in RIPA buffer (50 mM Tris-HCl [pH 8.0], 0.15 M NaCl, 0.5% sodium deoxycholate, 1% Triton X-100) in the presence of 1 microg/ml aprotinin and 75 microg/ml phenylmethylsulfonyl fluoride (PMSF), sonicated for 1-3 seconds and centrifuged. 40 microg of protein per lane were separated on 12% SDS/PAGE and blotted onto nitrocellulose paper (overnight, 25C). To verify equal loading a duplicate 13% SDS/PAGE was performed and stained with Coomasie Blue R250 stain. […] Bound antibodies were detected using enhanced chemiluminescence kit (Amersham Corp.). […]

p75^NTR-NIH 3T3 cells = assay: Effect of KGA-containing peptides on survival of beta-amyloid treated p75NTR-NIH 3T3 cells; format: cell-based; conditions: 250 nM peptide, 250 nM preaggregated beta-amyloid 1-40, 72 hours
Description: p75^NTR-NIH 3T3 cells were maintained in DME supplemented with 10% calf serum until 80% confluent. The cells were washed and incubated in serum free DME containing transferrin (5 microg/ml) and insulin (5 microg/ml). Triplicate dishes were supplemented with diluent or preaggregated beta-amyloid 1-40 (250 nM) as […]. […] After 72 hours, cells were rinsed in PBS and cultures were incubated in 0.25% trypsin at 37° C. Cell yields were determine using a particle counter.

p75 = p75 signal transduction in melanocytes (JNK activation, intracellular ceramide); format: cell-based, human
Description: To investigate p75 signal transduction, it was first determined by RT-PCR that trkA and trkC are not expressed in MC maintained in choleragen/TPA-free medium. MC were incubated with 10 ng/ml nerve growth factor (NGF) or neurotrophin-3 (NT-3) for 30 minutes and c-Jun amino terminal kinase (JNK) activation was determined. […] Furthermore, within 3 hours p75 activation by NGF, but not by NT-3, lead to a 2-fold increase of intracellular ceramide. As before, ceramide increase was abrogated by pre-incubation with the cyclic peptide. Because in cell lines, UV irradiation directly activates cell surface receptors such as Fas and the TNFα receptor, sham- or UV-irradiated MC were used to determine p75 activation.

human p75 = assay: p75 apoptotic signaling in 3T3-p75 cells (aggregation, c-jun, JNK, caspase-3, DNA fragmentation); format: cell-based; conditions: peptide pretreatment, then βA
Description: To investigate p75 early signaling, NIH-3T3 cells engineered to constitutively express human p75 (3T3-p75), were stimulated with a known p75 ligand β amyloid (βA), and the distribution of p75 on the cell surface was analysed using immunohistochemistry and confocal laser microscopy. […] (FIG. 13)
To determine if the initial step of p75 aggregation is required for initiation of apoptosis, 3T3-p75 were pretreated with an HPLC purified cyclic peptide (CATDIKGAEC) (SEQ ID NO:9) that binds the ligand binding site of p75, and then cultures were stimulated with βA or with diluent alone.

BCL-2 = BCL-2 antisense oligonucleotides in UV-irradiated MM4 cells with or without NGF; format: cell-based, human
Description: Purified phosphorothioate oligonucleotides were purchased from Quality Controlled Biochemicals, Inc. (Hopkinton, Mass.). 19 mer oligonucleotides were designed based on the published human BCL-2 sequence (Tsujimoto, Y. and Croce, C. M., Proc. Natl. Acad. Sci. USA, 83:5214-5218 (1986)). The sequence chosen was directed against the […] of the coding region starting 4 bases before the methionine initiation site. Nonsense oligonucleotides were used as control. Sequences used (all written 5′ to 3′): Antisense CCCAGCGTGCGCCATCCTT (SEQ ID NO: 7); Nonsense CTCCCACTCGTCATTCGAC (SEQ ID NO: 8).
MM4 cells were maintained in 60 mm diameter tissue culture dishes in 55.3% DME, 27.6% L15, 15% FBS, 1% nonessential amino acids (GIBCO BRL), 2 mM glutamine and 10 µg/ml insulin. Near confluent cells were UV irradiated with 10 mJ/cm^2. Immediately after irradiation cells were incubated with 10 uM antisense or nonsense BCL-2 oligonucleotides in suspension at […] for 30 minutes. Then cells were plated in tissue culture dishes in the presence or absence of NGF (50 ng/ml). Cells were supplemented with fresh oligonucleotides every 12 hours. Cell yield and BCL-2 level were determined 48 hours after irradiation. Cell yield was determined by counting cells in at least three representative field per each condition.

p75 NGF-R = p75 NGF-R antisense oligonucleotides in UV-irradiated, NGF-supplemented melanocytes; format: cell-based, human; conditions: UV 20 mJ/cm^2, 10 uM oligonucleotide, 48 hours
Description: The following sequences were used: Antisense 5' to 3' […] NO: 5); Nonsense 5' to 3° […] NO: 6) (negative control). […] Near confluent cells were irradiated using a 1 KW xenon arc solar simulator (XMN 1000-21, Optical Radiation Corp., Azuza, Calif.) with 20 mJ/cm^2 UV through the petri dish plastic cover. Irradiance was adjusted to 4×10^-5 UV cm^-2 and metered with a research 20 radiometer (model I[…], International Light, Newburyport, Mass.) fitted with a UVB probe at 285 Å 5 nm. […] After the initial 30 minute incubation cells were plated in 35 mm dishes in basal melanocyte medium without serum. Cells were supplemented with fresh oligonucleotides every 12 hours for 48 hours. Cells were visualized by phase contrast microscopy and pictures of representative fields were obtained. Cell yields were determined by counting cells in several representative fields.

MM4 cells = assay: MM4 cell yields after UV or sham irradiation with growth factor supplementation; format: cell-based, human
Description: Melanocytes or MM4 cells were plated in 60 mm diameter tissue culture dishes. Melanocytes were maintained in Medium 199 supplemented with 7% fetal bovine serum (FBS), 10 ng/ml epidermal growth factor (Collaborative Research), […] (Sigma), […] (Collaborative Research), […] (Sigma), 1.4×10^−6 M hydrocortisone (Calbiochem), […] (Calbiochem), and 10 ng/ml basic fibroblast growth factor (Collaborative Research) (basal melanocyte medium). MM4 cells were maintained in 55.3% DME, 27.6% L15, 15% FBS, 1% nonessential amino acids (GIBCO BRL), 2 mM glutamine and 10 µg/ml insulin. After 24 hours, medium was replaced by phosphate buffered saline (PBS) and cells were irradiated using a 1 KW xenon arc solar simulator (XMN 1000-21, Optical Radiation Corp., Azuza, Calif.) with 5, 10, or 25 mJ/cm^2 UV through the petri dish plastic cover. Irradiance was adjusted to 4×10^−5 UV cm^−2 and metered with a research radiometer (model IL1700A, International Light, Newburyport, Mass.) fitted with a UVB probe at 285 Å 5 nm. After UV irradiation, cells were maintained in their respective media without FBS for 2 days (MM4 cells) or 3 days (melanocytes) and processed as indicated. Sham irradiated control cultures were handled identically but laced under a dark cloth adjacent to the UV beam.
FIGS. 2B and 2D show MM4 cell yields 24-72 hours after a single UV irradiation of 10 mJ/cm^2. FIGS. 2C and 2e show MM4 cell yields 24-72 hours after sham irradiation. Cells in FIGS. 2B and 2C were supplemented with 50 ng/ml NGF or diluent alone. Cells in FIGS. 2D and 2E were supplemented with 50 ng/ml bFGF or diluent alone.
Melanocytes or MM4 cells were plated as described in Example 1. After irradiation, melanocytes were maintained in basal melanocyte medium lacking FBS and hydrocortisone, with 50 ng/ml NGF or diluent alone (melanocyte medium). MM4 cells were maintained in DME supplemented with 50 ng/ml NGF or diluent alone.

[1] = target: p75^NTR over expressed on permanently transfected NIH 3T3 fibroblasts (p75^NTR NIH 3T3 cells); assay: cell-based or functional assay
[2] = target: human p75 nerve growth factor receptor (human) (UniProt P08138); assay: cell-based or functional assay
[3] = target: p75^NTR over expressed on permanently transfected NIH 3T3 fibroblasts (p75^NTR NIH 3T3 cells); assay: competition with 125I beta-amyloid 1-40 on p75^NTR-NIH 3T3 cells, NGF 0-100 ng/ml, counting of lysates
[4] = target: the molecule itself; assay: cross-linking of 3T3-p75 cells stimulated with βA, western blot with anti p75 antibodies
[5] = target: p75^NTR over expressed on permanently transfected NIH 3T3 fibroblasts (p75^NTR NIH 3T3 cells); assay: competition with 125I beta-amyloid 1-40 on p75^NTR-NIH-3T3 cells in suspension, 4 hours, counting of lysates
[6] = pre-incubation with cyclic peptide

For “25-35: beta-amyloid fragment 25-35 (GSNKGAIIGLM; Amyloid-beta protein 42; UniProt P05067 696-706, looked up, fragment)”, the “Bax induction versus 40-1 control fragment or irrelevant protein” value (Bax; 25 uM, within 4 days) was 3 fold and the “Bax level as compared to the 40-1 peptide” value (Bax; 25 microM, four days) was 160%.

With “CATDIKGAEC (also: cyclic, ring type not given here)” the “Cell yields, cyclic peptide and beta-amyloid versus beta-amyloid alone” value (p75^NTR-NIH 3T3 cells) was “significantly higher”, the “JNK activation in NGF stimulated cells” value (p75; [6]) was “abrogated JNK activation” and the NGF-induced ceramide increase (p75; [6]) was “abrogated”. For the same molecule, the c-jun transcription (human p75) was “decreased c-jun transcription” and the p75 aggregation (human p75) was “inhibited p75 aggregation”.

For “CCCAGCGTGCGCCATCCTT (DNA, all phosphorothioate, methylation of C not given here; listed as Homo sapiens) [BCL-2 antisense oligonucleotides]”, the “BCL-2 levels (Western blot)” value (BCL-2; 10 uM antisense, 48 hours after UV 10 mJ/cm^2) was “almost undetectable” and the “Cell yields, NGF plus BCL-2 antisense versus NGF plus nonsense” value (BCL-2; UV 10 mJ/cm^2, 10 uM oligonucleotide, NGF 50 ng/ml, 48 hours) was “significantly lower”.

In the case of “CKGAIC (also: cyclic, ring type not given here) [cyclic KGA-containing hexapeptide]”, the “Cell yields, cyclic peptide and beta-amyloid versus beta-amyloid alone” value (p75^NTR-NIH 3T3 cells) is reported as “significantly higher”.

“GGCACCTGCCCCCATCGCC (DNA, all phosphorothioate, methylation of C not given here; listed as Homo sapiens) [antisense NGF-R, 19 mer antisense against the 5′ end of the human p75 NGF-R coding region]” was tested, and the “NGF effect on melanocyte survival” value (p75 NGF-R) was “NGF does not have an effect on melanocyte survival”.

For “bFGF: basic fibroblast growth factor, a major mitogen for cells of melanocytic origin”, the “MM4 cell survival after UV irradiation” value (MM4 cells; UV 10 mJ/cm^2, 50 ng/ml bFGF) was “failed to improve MM4 cell survival” and the “Effect on sham irradiated MM4 cells” value (MM4 cells; sham irradiation, 50 ng/ml bFGF) was “mitogenic effect”.

In the case of “beta-amyloid 1-40 peptide (from UniProt P05067 1-40)”, the cell yield (% reduction of cell yield) [1] is reported as 60 and the melanocyte cell yield (% decrease in cell yield) [2] is reported as 59.

In the case of nerve growth factor (ligand), the maximum inhibition of ^125I beta-amyloid binding [3] is reported as 38 % inhibition and the intracellular ceramide (fold increase) [2] is reported as 2.

B1: human p75 nerve growth factor receptor (receptor, UniProt P08138 29-427, looked up)
chain: KEACPTGLYTHSGECCKACNLGEGVAQPCGANQTVCEPCLDSVTFSDVVSATEPCKPCTECVGLQSMSAPCVEADDAVCRCAYGYYQDETTGRCEACRVCEAGSGLVFSCQDKQNTVCEECPDGTYSDEANHVDPCLPCTVCEDTERQLRECTRWADAECEEIPGRWITRSTPPEGSDSTAPSTQEPEAPPEQDLIASTVAGVVTTVMGSSQPVVTRGTTDNLIPVYCSILAAVVVGLVAYIAFKRWNSCKQNKQGANSRPVNQTPPPEGEKLHSDSGISVDSQSLHDQQPHTQTASGQALKGDGGLYSSLPPAKREEVEKLLNGSAGDTWRHLAGELGYQPEHIDSFTHEACPVRALLASWATQDSATLDALLAALRRIQRADLVESLCSESTATSPV
notes: whole, on cells; also called p75 NGF-R; p75^NTR
B1: binds [4].

Work on CVGSNKGAIC (not fully specified (bridges); also: cyclic peptide, ring type not given here) [cyclic peptide … (SEQ ID NO: 4)] yielded an IC50 [5] of 25 nM.

B2: NT-3: neurotrophin-3 (protein, UniProt P20783 139-257, looked up)
Neurotrophin-3: YAEHKSHRGEYSVCDSESLWVTDKSSAIDIRGHQVTVLGEIKTGNSPVKQYFYETRCKEARPVKNGCRGIDDKHWNSQCKTSQTYVRALTSENNKLVGWRWIRIDTSCVCALSRKIGRT
B2 was tested, and the “UV-induced JNK activation” value (p75; NT-3 pre-treatment, within 30 minutes of UV) was “partially decreased” and the “Increase of intracellular ceramide” value (p75; within 3 hours) was “not by NT-3”.
